Experimental data taken from ChEMBL document CHEMBL5370553, “Small-molecule LRRK2 inhibitors for PD therapy: Current achievements and future perspectives” (Eur J Med Chem, 2023).

Assays:
[1] = biological target: T1, Leucine-rich repeat serine/threonine-protein kinase 2 (Homo sapiens, UniProt Q5S007, G2019S); experiment: Inhibition of human LRRK2 G2019S mutant using LRRKtide as substrate measured after 1 hrs by caliper mobility shift assay
[2] = biological target: T2, Leucine-rich repeat serine/threonine-protein kinase 2 (Homo sapiens, UniProt Q5S007); experiment: Inhibition of human LRRK2 using LRRKtide as substrate measured after 1 hrs by caliper mobility shift assay
T2 sequence (Q5S007 whole entry): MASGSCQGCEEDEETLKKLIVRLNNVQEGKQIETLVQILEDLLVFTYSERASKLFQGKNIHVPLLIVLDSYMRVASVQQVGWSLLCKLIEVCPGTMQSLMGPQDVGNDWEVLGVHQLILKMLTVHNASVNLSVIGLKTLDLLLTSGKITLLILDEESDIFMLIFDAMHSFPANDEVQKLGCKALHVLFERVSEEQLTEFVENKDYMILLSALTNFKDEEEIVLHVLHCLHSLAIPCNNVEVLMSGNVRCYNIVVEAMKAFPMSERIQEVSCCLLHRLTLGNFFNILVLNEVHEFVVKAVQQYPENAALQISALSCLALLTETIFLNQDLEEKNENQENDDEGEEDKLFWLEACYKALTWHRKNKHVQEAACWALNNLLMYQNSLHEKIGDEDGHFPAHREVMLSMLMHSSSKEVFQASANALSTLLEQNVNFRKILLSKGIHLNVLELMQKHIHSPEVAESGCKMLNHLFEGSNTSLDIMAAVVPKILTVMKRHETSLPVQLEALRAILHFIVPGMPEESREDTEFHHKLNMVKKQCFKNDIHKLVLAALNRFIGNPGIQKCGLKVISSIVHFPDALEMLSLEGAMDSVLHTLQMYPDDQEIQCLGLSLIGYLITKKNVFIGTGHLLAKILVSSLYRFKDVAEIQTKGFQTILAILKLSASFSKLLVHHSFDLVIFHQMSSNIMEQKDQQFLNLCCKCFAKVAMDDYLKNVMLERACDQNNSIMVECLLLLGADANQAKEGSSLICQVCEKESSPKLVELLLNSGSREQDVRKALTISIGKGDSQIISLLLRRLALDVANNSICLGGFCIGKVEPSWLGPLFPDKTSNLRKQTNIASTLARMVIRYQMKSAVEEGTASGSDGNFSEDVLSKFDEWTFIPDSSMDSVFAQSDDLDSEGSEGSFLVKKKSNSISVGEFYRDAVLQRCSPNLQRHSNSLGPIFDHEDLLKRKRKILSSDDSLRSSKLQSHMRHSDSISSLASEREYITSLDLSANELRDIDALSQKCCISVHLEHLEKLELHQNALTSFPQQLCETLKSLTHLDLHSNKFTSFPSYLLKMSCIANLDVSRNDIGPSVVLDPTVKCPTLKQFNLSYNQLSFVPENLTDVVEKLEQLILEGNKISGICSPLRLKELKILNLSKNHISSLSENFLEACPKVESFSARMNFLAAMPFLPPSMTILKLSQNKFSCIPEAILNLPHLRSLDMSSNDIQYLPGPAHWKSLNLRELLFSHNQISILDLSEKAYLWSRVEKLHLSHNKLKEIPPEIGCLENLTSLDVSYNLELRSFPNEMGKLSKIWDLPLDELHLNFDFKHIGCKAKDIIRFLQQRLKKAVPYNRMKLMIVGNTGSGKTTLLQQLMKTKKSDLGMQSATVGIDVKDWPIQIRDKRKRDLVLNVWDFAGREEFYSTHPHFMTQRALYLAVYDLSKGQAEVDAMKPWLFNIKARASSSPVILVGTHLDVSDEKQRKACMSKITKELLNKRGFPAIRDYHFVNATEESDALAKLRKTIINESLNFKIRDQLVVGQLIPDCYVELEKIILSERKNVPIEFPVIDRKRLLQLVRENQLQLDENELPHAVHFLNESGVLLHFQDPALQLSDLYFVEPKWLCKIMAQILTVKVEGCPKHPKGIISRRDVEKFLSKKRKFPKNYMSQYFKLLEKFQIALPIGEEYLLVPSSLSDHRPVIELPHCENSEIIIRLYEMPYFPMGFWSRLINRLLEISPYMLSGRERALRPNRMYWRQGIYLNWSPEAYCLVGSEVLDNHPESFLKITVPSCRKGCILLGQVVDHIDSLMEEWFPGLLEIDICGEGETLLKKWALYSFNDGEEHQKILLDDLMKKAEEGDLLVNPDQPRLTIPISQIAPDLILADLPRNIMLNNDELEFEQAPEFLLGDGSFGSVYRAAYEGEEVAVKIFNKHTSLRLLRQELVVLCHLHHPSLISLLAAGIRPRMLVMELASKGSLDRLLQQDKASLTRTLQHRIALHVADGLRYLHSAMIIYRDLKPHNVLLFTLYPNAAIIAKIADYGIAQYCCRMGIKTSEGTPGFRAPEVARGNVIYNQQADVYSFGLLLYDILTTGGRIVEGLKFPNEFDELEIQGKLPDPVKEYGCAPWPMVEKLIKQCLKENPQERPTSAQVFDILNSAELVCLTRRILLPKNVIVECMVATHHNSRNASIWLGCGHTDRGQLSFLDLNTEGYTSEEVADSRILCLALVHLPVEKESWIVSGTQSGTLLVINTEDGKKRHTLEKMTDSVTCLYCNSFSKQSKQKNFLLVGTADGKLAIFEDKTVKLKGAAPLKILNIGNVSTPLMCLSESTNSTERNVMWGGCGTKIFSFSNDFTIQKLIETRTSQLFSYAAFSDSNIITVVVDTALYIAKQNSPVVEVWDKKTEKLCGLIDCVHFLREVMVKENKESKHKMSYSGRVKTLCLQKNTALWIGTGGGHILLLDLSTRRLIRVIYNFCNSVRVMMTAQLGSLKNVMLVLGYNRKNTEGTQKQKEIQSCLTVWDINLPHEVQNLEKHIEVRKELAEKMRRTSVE

[3] = biological target: T2, Leucine-rich repeat serine/threonine-protein kinase 2; experiment: Inhibition of GST20-tagged human LRRK2 using ERM as substrate measured after 90 mins in presence of ATP by lanthascreen TR-FRET assay
[4] = biological target: T2, Leucine-rich repeat serine/threonine-protein kinase 2; experiment: Inhibition of GST20-tagged human LRRK2 by cell based assay
[5] = biological target: T1, Leucine-rich repeat serine/threonine-protein kinase 2; experiment: Inhibition of GST-tagged human LRRK2 G2019S mutant expressed in Insect cell using ERM as substrate measured after 1 hrs
[6] = biological target: T2, Leucine-rich repeat serine/threonine-protein kinase 2; experiment: Inhibition of GST-tagged recombinant human LRRK2 expressed in Insect cell using ERM as substrate measured after 1 hrs
[7] = biological target: T3, von Hippel-Lindau disease tumor suppressor/Leucine-rich repeat serine/threonine-protein kinase 2 (Homo sapiens) (UniProt Q5S007+P40337); experiment: PROTAC activity at VHL/LRRK2 in human PBMC cells assessed as induction of degradation by measuring half life measured after 24 hrs by Western blot analysis; type: cell-based
T3 sequence (P40337 whole entry, looked up): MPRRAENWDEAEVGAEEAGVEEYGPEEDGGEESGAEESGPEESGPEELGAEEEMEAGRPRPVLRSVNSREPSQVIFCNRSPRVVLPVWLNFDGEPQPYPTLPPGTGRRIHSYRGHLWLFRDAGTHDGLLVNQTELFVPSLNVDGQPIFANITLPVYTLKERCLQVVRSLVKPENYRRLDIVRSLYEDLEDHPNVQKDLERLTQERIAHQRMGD
T3 sequence (Q5S007 whole entry, looked up): as the sequence (Q5S007 whole entry) above

[8] = biological target: T4, von Hippel-Lindau disease tumor suppressor/Leucine-rich repeat serine/threonine-protein kinase 2 (Homo sapiens, UniProt P40337+Q5S007, G2019S); experiment: PROTAC activity at VHL/LRRK2 G2019S mutant in human PBMC cells assessed as reduction of protein degradation measured after 24 hrs by Western blot; type: cell-based
T4 sequence (P40337 whole entry, stated change not applied): as the sequence (P40337 whole entry, looked up) above
T4 sequence (Q5S007 whole entry G2019S, stated change not applied): as the sequence (Q5S007 whole entry) above, with G2019S counted along it

[9] = biological target: T5, von Hippel-Lindau disease tumor suppressor/Leucine-rich repeat serine/threonine-protein kinase 2 (Homo sapiens, UniProt P40337+Q5S007); experiment: PROTAC activity at VHL/LRRK2 in human PBMC cells assessed as reduction of protein degradation measured after 24 hrs by Western blot; type: cell-based
T5 sequence (Q5S007 whole entry): as the sequence (Q5S007 whole entry) above
T5 sequence (P40337 whole entry): as the sequence (P40337 whole entry, looked up) above

[10] = biological target: T5, von Hippel-Lindau disease tumor suppressor/Leucine-rich repeat serine/threonine-protein kinase 2; experiment: PROTAC activity at VHL/LRRK2 in human PBMC cells assessed as reduction of protein degradation measured after 4 hrs by Western blot; type: cell-based
[11] = system: von Hippel-Lindau disease tumor suppressor/Leucine-rich repeat serine/threonine-protein kinase 2 (Homo sapiens), Q5S007+P40337 [G2019S]; experiment: PROTAC activity at VHL/LRRK2 G2019S mutant in human PBMC cells assessed as reduction of protein degradation at 300 nM measured after 4 hrs by Western blot analysis relative to control; type: cell-based
[12] = system: von Hippel-Lindau disease tumor suppressor/Leucine-rich repeat serine/threonine-protein kinase 2 (Homo sapiens), Q5S007+P40337 [G2019S]; experiment: PROTAC activity at VHL/LRRK2 G2019S mutant in human PBMC cells assessed as induction of degradation by measuring half life measured after 24 hrs by Western blot analysis; type: cell-based
[13] = biological target: T3, von Hippel-Lindau disease tumor suppressor/Leucine-rich repeat serine/threonine-protein kinase 2 (Homo sapiens); experiment: PROTAC activity at VHL/LRRK2 in human PBMC cells assessed as reduction of protein degradation at 300 nM measured after 4 hrs by Western blot analysis relative to control; type: cell-based
[14] = Oral bioavailability in mouse at 30 mg/kg measured upto 8 hrs by LC-MS/MS analysis; type: ADME, organism-based; conditions: in vivo
[15] = biological target: T4, von Hippel-Lindau disease tumor suppressor/Leucine-rich repeat serine/threonine-protein kinase 2; experiment: PROTAC activity at VHL/LRRK2 G2019S mutant in human PBMC cells assessed as reduction of protein degradation measured after 4 hrs by Western blot; type: cell-based
[16] = system: von Hippel-Lindau disease tumor suppressor/Leucine-rich repeat serine/threonine-protein kinase 2 (Homo sapiens), Q5S007+P40337 [G2019S]; experiment: PROTAC activity at VHL/LRRK2 G2019S mutant in human PBMC cells assessed as reduction of protein degradation measured after 24 hrs by Western blot analysis relative to control; type: cell-based
[17] = biological target: T3, von Hippel-Lindau disease tumor suppressor/Leucine-rich repeat serine/threonine-protein kinase 2 (Homo sapiens); experiment: PROTAC activity at VHL/LRRK2 in human PBMC cells assessed as reduction of protein degradation measured after 24 hrs by Western blot analysis relative to control; type: cell-based
[18] = Oral bioavailability in rat; type: ADME, organism-based; conditions: in vivo
[19] = Half life in rat; type: ADME; conditions: in vivo
[20] = biological target: T1, Leucine-rich repeat serine/threonine-protein kinase 2; experiment: Inhibition of LRRK2 G2019S mutant (unknown origin)
[21] = biological target: T2, Leucine-rich repeat serine/threonine-protein kinase 2; experiment: Inhibition of human full length LRRK2 using RLGRDKYKTLRQIRQ peptide as substrate by mass spectrometry analysis
[22] = biological target: T2, Leucine-rich repeat serine/threonine-protein kinase 2; experiment: Inhibition of LRRK2 (unknown origin)
[23] = biological target: T2, Leucine-rich repeat serine/threonine-protein kinase 2; experiment: Inhibition of human LRRK2 measured after 60 mins by TR-FRET assay
[24] = biological target: T1, Leucine-rich repeat serine/threonine-protein kinase 2; experiment: Inhibition of human LRRK2 G2019S mutant measured after 60 mins by TR-FRET assay
[25] = biological target: T2, Leucine-rich repeat serine/threonine-protein kinase 2; experiment: Inhibition of recombinant N-terminal GST-tagged human LRRK2 expressed in Sf9 insect cells using H-RLGAWRFTTLRRARQGNTKQR-OH peptide as substrate
[26] = biological target: T1, Leucine-rich repeat serine/threonine-protein kinase 2; experiment: Inhibition of recombinant N-terminal GST-tagged human G2019S LRRK2 expressed in Sf9 insect cells using H-RLGAWRFTTLRRARQGNTKQR-OH peptide as substrate
[27] = biological target: Protein cereblon/Leucine-rich repeat serine/threonine-protein kinase 2 (Mus musculus, UniProt Q5S006+Q8C7D2); experiment: PROTAC activity at CRBN/LRRK2 in mouse RAW264.7 cells assessed as reduction of protein degradation measured after 24 hrs by Western blot analysis; type: cell-based
[28] = Half life in mouse; type: ADME, organism-based; conditions: in vivo
[29] = Oral bioavailability in Beagle dog by LC-MS/MS analysis; type: ADME, organism-based, Canis lupus familiaris; conditions: in vivo
[30] = Mean residence time in Beagle dog by LC-MS/MS analysis; type: ADME, Canis lupus familiaris; conditions: in vivo
[31] = Mean residence time in rat by LC-MS/MS analysis; type: ADME; conditions: in vivo
[32] = Oral bioavailability in rat by LC-MS/MS analysis; type: ADME, organism-based; conditions: in vivo
[33] = biological target: Dual specificity protein kinase CLK2 (Homo sapiens, UniProt P49760); experiment: Inhibition of CLK2 (unknown origin) by fluorescence based assay
Dual specificity protein kinase CLK2, sequence (P49760 whole entry): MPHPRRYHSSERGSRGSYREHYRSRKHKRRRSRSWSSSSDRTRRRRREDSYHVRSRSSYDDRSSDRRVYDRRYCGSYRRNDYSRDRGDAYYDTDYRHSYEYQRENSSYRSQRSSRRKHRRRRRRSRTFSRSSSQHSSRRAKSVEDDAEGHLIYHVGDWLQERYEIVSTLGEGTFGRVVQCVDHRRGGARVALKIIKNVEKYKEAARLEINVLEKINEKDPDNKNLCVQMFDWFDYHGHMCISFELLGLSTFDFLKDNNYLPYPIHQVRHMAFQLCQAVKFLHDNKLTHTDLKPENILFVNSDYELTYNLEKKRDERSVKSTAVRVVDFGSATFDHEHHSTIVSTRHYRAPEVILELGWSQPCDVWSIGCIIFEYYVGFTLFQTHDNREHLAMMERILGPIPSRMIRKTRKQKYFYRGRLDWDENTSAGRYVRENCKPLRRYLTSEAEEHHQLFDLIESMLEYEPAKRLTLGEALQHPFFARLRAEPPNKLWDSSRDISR

[34] = biological target: Leucine-rich repeat serine/threonine-protein kinase 2 (Mus musculus, UniProt Q5S006); experiment: Inhibition of mouse LRRK2
[35] = Oral bioavailability in CD-1 mouse at 5 mg/kg; type: ADME, organism-based; conditions: in vivo
[36] = Half life in CD-1 mouse at 1 mg/kg, iv; type: ADME, organism-based; conditions: in vivo

T1 sequence (Q5S007 whole entry G2019S): as the sequence (Q5S007 whole entry) above, with G2019S counted along it

CNc1nc(N/N=C/c2cccc3ccccc23)nc(Nc2cccc(C(F)(F)F)c2)n1
IC50 [1]: 378 nM
IC50 [2]: 424 nM

CC(C)(O)[C@@H]1CCN(c2cnc(C(F)(F)F)c(NC(=O)c3cccc(-c4cnn(CC(F)(F)F)c4)n3)c2)C1
IC50 [3]: 10 nM
IC50 [4]: 0.7 nM

Cn1cc(-c2cccc(C(=O)Nc3cc(N4CC[C@@H](C(C)(C)O)C4)cnc3C(F)(F)F)n2)cn1
IC50 [3]: 17 nM
IC50 [4]: 21 nM

Cn1cc(-c2nc(C(=O)Nc3cnn(C4CCC4)c3)cs2)cn1
IC50 [3]: 14 nM
IC50 [4]: 271 nM

Cn1cc(-c2c[nH]c3ncnc(N4CCOCC4)c23)cc1C#N
IC50 [5]: 6.37 nM
IC50 [6]: 13 nM

CNc1nc(Nc2ccc(C(=O)N3CCN(C[C@H]4CC[C@H](CSC(C)(C)[C@H](NC(=O)C5(F)CC5)C(=O)N5C[C@H](O)C[C@H]5C(=O)NCc5ccc(-c6scnc6C)cc5)CC4)CC3)cc2OC)ncc1Cl
T1/2 [7]: 1.2 h
IC50 [8]: 24.3 nM
IC50 [9]: 12.4 nM
EC50 [10]: 32 nM
Emax [11]: 81%
T1/2 [12]: 0.6 h
Emax [13]: 82%
bioavailability [14]: 15%
EC50 [15]: 14 nM

CNc1nc(Nc2ccc(C(=O)N3CCN(CCOCCOCCSC(C)(C)[C@H](NC(=O)C4(F)CC4)C(=O)N4C[C@H](O)C[C@H]4C(=O)NCc4ccc(-c5scnc5C)cc4)CC3)cc2OC)ncc1Cl
T1/2 [7]: 5.1 h
T1/2 [12]: 1.4 h
Emax [16]: 58%
Emax [17]: 51%

CCNc1nc(Nc2cc(F)c(C(=O)N3CCOCC3)cc2OC)ncc1C(F)(F)F
bioavailability [18]: 40%
half-life [19]: 3.1 h
IC50 [20]: 1 nM

Cc1c2c(nn1C1CCOCC1)OCCCNc1nc(ncc1Cl)N2
IC50 [21]: ≤ 100 nM

CC(C)Nc1nc(Nc2ccc(C(=O)NCc3ccccc3)cc2)nc2ccsc12
IC50 [22]: 30 nM
IC50 [20]: 14 nM

COc1cc(N2CCOCC2)ccc1Nc1ncc(Cl)c(Nc2ccccc2NS(C)(=O)=O)n1
IC50 [23]: 1.28 nM
IC50 [24]: 1.85 nM

CCC(Sc1ccc2nnc(-c3cccs3)n2n1)C(=O)N1CCCCC1 (stereo not given)
IC50 [25]: 146 nM
IC50 [26]: 75 nM

CCNc1nc(Nc2cc(F)c(C(=O)NCCCCNc3cccc4c3C(=O)N(C3CCC(=O)NC3=O)C4=O)cc2OC)ncc1C(F)(F)F (stereo not given)
IC50 [27]: 14.7 nM

COc1cc(C(=O)N2CCC(N3CCN(C)CC3)CC2)ccc1Nc1ncc2c(n1)N(C)c1ccccc1C(=O)N2C
half-life [28]: 4.5 h

Cn1cc(-c2cccc(C(=O)Nc3cc(N4CCC(C(C)(C)O)C4)ncc3C(F)(F)F)n2)cn1 (stereo not given)
bioavailability [29]: 43%
IC50 [3]: 1 nM
MRT [30]: 3.6 h
MRT [31]: 5.2 h
bioavailability [32]: 16%
IC50 [4]: 2.5 nM
IC50 [33]: 63 nM

C=CC(=O)Nc1cccc(Oc2nc(Nc3ccc(N4CCN(C)CC4)c(F)c3)nc3[nH]ccc23)c1 [ABIVERTINIB]
IC50 [22]: 177 nM
IC50 [20]: 410 nM

CNc1nc(Nc2ccc(C(=O)N3CCN(C[C@H]4CC[C@@H](CSC(C)(C)[C@H](NC(=O)C5(F)CC5)C(=O)N5C[C@H](O)C[C@H]5C(=O)NCc5ccc(-c6scnc6C)cc5)CC4)CC3)cc2OC)ncc1Cl
T1/2 [7]: 2.7 h
EC50 [10]: 32 nM
Emax [11]: 90%
T1/2 [12]: 1.4 h
Emax [13]: 59%
EC50 [15]: 7 nM

CCOc1cc(N2CCOCC2)ccc1Nc1ncc(F)c(Nc2ccccc2NS(C)(=O)=O)n1
IC50 [34]: 190 nM

COc1cc(N2CCOCC2)ccc1Nc1ncc(F)c(Nc2ccccc2NS(C)(=O)=O)n1
IC50 [23]: 4.76 nM
IC50 [24]: 6.87 nM
bioavailability [35]: 133%
half-life [36]: 1 h
